# Reference: patent publication US20150175651A1, “NEUROACTIVE STEROIDS, COMPOSITIONS, AND USES THEREOF” (SAGE THERAPEUTICS, INC., priority 2012, published 2015)
# Molecular target: GABA receptor complex (GRC), [35S]-TBPS binding in rat brain cortical membranes
# Assay: Steroid inhibition of [35S]-TBPS binding (radioligand displacement)
# Conditions: 2 nM [35S]-TBPS, in the presence of 5 μM GABA, read-out: 35S-TBPS Radioligand Displacement (Control IC50)
# Method: TBPS binding assays using rat brain cortical membranes in the presence of 5 μM GABA has been described (Gee et al, J. Pharmacol. Exp. Ther. 1987, 241, 346-353; Hawkinson et al, Mol. Pharmacol. 1994, 46, 977-985).
# Briefly, cortices are rapidly removed following decapitation of carbon dioxide-anesthetized Sprague-Dawley rats (200-250 g). The cortices are homogenized in 10 volumes of ice-cold 0.32 M sucrose using a glass/teflon homogenizer and centrifuged at 1500×g for 10 min at 4° C. The resultant supernatants are centrifuged at 10,000×g for 20 min at 4° C. to obtain the P2 pellets. The P2 pellets are resuspended in 200 mM NaCl/50 mM Na—K phosphate pH 7.4 buffer and centrifuged at 10,000×g for 10 min at 4 OC. This ishing procedure is repeated twice and the pellets are resuspended in 10 volumes of buffer. Aliquots (100 μL) of the membrane suspensions are incubated with 2 nM [^35S]-TBPS and 5 μL, aliquots of test drug dissolved in dimethyl sulfoxide (DMSO) (final 0.5%) in the presence of 5 μM GABA. The incubation is brought to a final volume of 1.0 mL with buffer. Nonspecific binding is determined in the presence of 2 μM unlabeled TBPS and ranged from 15 to 25%. Following a 90 min incubation at room temp, the assays are terminated by filtration through glass fiber filters (Schleicher and Schuell No. 32) using a cell harvester (Brandel) and rinsed three times with ice-cold buffer. Filter bound radioactivity is measured by liquid scintillation spectrometry. Non-linear curve fitting of the overall data for each drug averaged for each concentration is done using Prism (GraphPad). […] The concentration of test compound producing 50% inhibition (IC50) of specific binding and the maximal extent of inhibition (Imax) are determined for the individual experiments with the same model used for the overall data and then the means+SEM.s of the individual experiments are calculated.
# Various compounds are or can be screened to determine their potential as modulators of [^35S]-TBPS binding in vitro. These assays are or can be performed in accordance with the above discussed procedures.
row,Structure (SMILES),IC50
1,CC(=O)O[C@H]1C[C@@]2(C)[C@@H](CC[C@@H]3[C@@H]2CC[C@]2(C)[C@@H](C(=O)CO)CC[C@@H]32)C[C@@H]1O [Compound 6],100 to 500 nM
2,"CC(=O)O[C@H]1C[C@@]2(C)[C@@H](CC[C@@H]3[C@@H]2CC[C@]2(C)/C(=C\C#N)CC[C@@H]32)C[C@@H]1O [Compound 1, (2S,3S,5S,8R,9S,10S,13S,14S,Z)-17-(cyanomethylene)-3-hydroxy-10,13-dimethyl-hexadecahydro-1H-cyclopenta[a]phenanthren-2-yl acetate]",100 to 500 nM
3,"CC(=O)O[C@H]1C[C@@H]2[C@H](CC[C@]3(C)[C@@H](C(=O)CO)CC[C@@H]23)[C@@]2(C)CC[C@@H](O)C[C@H]12 [Compound 9, (3R,5S,6S,8R,9S,10R,13S,14S,17S)-3-hydroxy-17-(2-hydroxyacetyl)-10,13-dimethyl-hexadecahydro-1H-cyclopenta[a]phenanthren-6-yl acetate]",100 to 500 nM
4,"CC(=O)O[C@H]1C[C@@H]2[C@H](CC[C@]3(C)/C(=C\C#N)CC[C@@H]23)[C@@]2(C)CC[C@@H](O)C[C@H]12 [Compound 3, (3R,5S,6S,8R,9S,10R,13S,14S,Z)-17-(cyanomethylene)-3-hydroxy-10,13-dimethyl-hexadecahydro-1H-cyclopenta[a]phenanthren-6-yl acetate]",100 to 500 nM
5,"CC(=O)OC[C@]12CC[C@@H](O)C[C@@H]1CC[C@@H]1[C@@H]2CC[C@]2(C)/C(=C\C#N)CC[C@@H]12 [Compound 5, ((3R,5S,8S,9S,10R,13S,14S,Z)-17-(cyanomethylene)-3-hydroxy-13-methyl-hexadecahydro-1H-cyclopenta[a]phenanthren-10-yl)methyl acetate]",100 to 500 nM
6,"CC(=O)O[C@H]1C[C@]2(C)/C(=C\C#N)CC[C@H]2[C@@H]2CC[C@H]3C[C@H](O)CC[C@]3(C)[C@H]21 [Compound 4, (3R,5S,8S,9S,10S,11S,13S,14S,Z)-17-(cyanomethylene)-3-hydroxy-10,13-dimethyl-hexadecahydro-1H-cyclopenta[a]phenanthren-11-yl acetate]",100 to 500 nM
7,"CC(=O)O[C@H]1C[C@@H]2[C@H](CC[C@]3(C)[C@@H](C(C)=O)CC[C@@H]23)[C@@]2(C)CC[C@@H](O)C[C@H]12 [Compound 8, (3R,5S,6S,8R,9S,10R,13S,14S,17S)-17-acetyl-3-hydroxy-10,13-dimethyl-hexadecahydro-1H-cyclopenta[a]phenanthren-6-yl acetate]",100 to 500 nM
8,"CC(=O)O[C@H]1C[C@]2(C)[C@@H](C(=O)CO)CC[C@H]2[C@@H]2CC[C@H]3C[C@H](O)CC[C@]3(C)[C@H]21 [Compound 7, (3R,5S,8S,9S,10S,11S,13S,14S,17S)-3-hydroxy-17-(2-hydroxyacetyl)-10,13-dimethyl-hexadecahydro-1H-cyclopenta[a]phenanthren-11-yl acetate]",100 to 500 nM
9,"C[C@]12C[C@H](OC(=O)c3ccccc3)[C@@H](O)C[C@@H]1CC[C@@H]1[C@@H]2CC[C@]2(C)[C@@H](C(=O)CO)CC[C@@H]12 [Compound 2, (2S,3S,5S,8R,9S,10S,13S,14S,17S)-3-hydroxy-17-(2-hydroxyacetyl)-10,13-dimethyl-hexadecahydro-1H-cyclopenta[a]phenanthren-2-yl benzoate]",100 to 500 nM
10,CO[C@H]1CC[C@H]2[C@@H]3CC[C@H]4C[C@H](O)CC[C@]4(COC(C)=O)[C@H]3CC[C@]12C [Compound 13],100 to 500 nM
11,CC(=O)OC1CC2(C)C(=CC#N)CCC2C2CCC3CC(O)CCC3C12 (centres unmarked) [Compound 11],100 to 500 nM
